# According to patent publication US9872873B2, “Process for preparing stable pharmaceutical compositions of compounds susceptible to hydrolysis” (Fresenius Kabi Oncology Limited, priority 2012, dated 2018):
# Experiments:
# Format in all cases: physicochemical
# [1] = Solution stability profile of Azacitidine in water at 25° C.; set-up: unit not given here
# Experimental: In one embodiment of the invention, a batch of Azacitidine bulk solution was prepared by dissolving the compound (4 mg/mL) and Mannitol (4 mg/mL) in water at room temperature. […]
# [2] = Solution stability profile of Azacitidine in water at −1° C. to 0° C.; set-up: RGU / Specified Imp-1 / Specified Imp-2 / RGU-CHO / Total Impurity (excluding RGU & RGU-CHO): unit not given here; conditions: for RGU / RGU-CHO / Specified Imp-1 / Specified Imp-2 / Total Impurity (excluding RGU & RGU-CHO): water, −1° C. to 0° C.
# Experimental: It is evident from the Table I that Fabrication of the Azacitidine in water at room temperature led to a significant increase in the level of “RGU-CHO” in the Bulk Solution. Further, in order to control the degradation rate of Azacitidine, another batch was manufactured in water at possible temperature i.e. −1° C. to 0° C. by dissolving Azacitidine (4 mg/mL) and Mannitol (4 mg/mL) in water at −1° C. to 0° C. and the solution stability results are shown below in Table II.
# [3] = Solution stability of Azacitidine bulk solution in Water:Acetonitrile 80:20% v/v at −5 ± 2° C.; set-up: RGU / RGU-CHO: unit not given beside the values
# Experimental: (§1) In another aspect of the invention the fabrication temperature was controlled at −5±3° C., −5±2° C., −5±1° C. preferably −5±2° C. using Water and Acetonitrile ratio in between 95:5 to 70:30 preferably 80:20 (% v/v) respectively. The hold time data of Azacitidine, Decitabine and Bendamustine obtained in solvent mixture of Water and Acetonitrile at a ratio of 80:20 (% v/v), when fabricated at a temperature range of −5±2° C. is presented in Table VIII, IX, X respectively.
# [4] = Stability profile of Bendamustine Hydrochloride pre-lyophilized bulk solution in water (5 mg/mL) at 5 ± 3° C.
# [5] = Solution stability of Bendamustine Hydrochloride bulk solution in Water:Acetonitrile 80:20% v/v at −5 ± 2° C.
# Experimental: as §1
compound,measurement,setting,value
Nc1ncn([C@@H]2O[C@H](CO)[C@@H](O)[C@H]2O)c(=O)n1 [Azacitidine],Imp-1,[1]; 1st hour,0.027
same,Imp-2,[1]; 1st hour,0.050
same,RGU,[1]; 1st hour,0.314
same,RGU-CHO,[1]; 1st hour,6.966
same,Total Impurity (excluding RGU & RGU-CHO),[1]; 1st hour,0.077
same,Imp-1,[1]; 2nd hour,0.028
same,Imp-2,[1]; 2nd hour,0.050
same,RGU,[1]; 2nd hour,0.591
same,RGU-CHO,[1]; 2nd hour,10.495
same,Total Impurity (excluding RGU & RGU-CHO),[1]; 2nd hour,0.078
same,Imp-1,[1]; Initial,0.027
same,Imp-2,[1]; Initial,0.051
same,RGU,[1]; Initial,0.164
same,RGU-CHO,[1]; Initial,1.158
same,Total Impurity (excluding RGU & RGU-CHO),[1]; Initial,0.078
same,degradation in RGU-CHO,[2]; manufacturing in water at −1° C. to 0° C.,around 4%
same,RGU,[2]; 1st hour,0.175
same,RGU-CHO,[2]; 1st hour,1.767
same,Specified Imp-1,[2]; 1st hour,0.025
same,Specified Imp-2,[2]; 1st hour,0.051
same,Total Impurity (excluding RGU & RGU-CHO),[2]; 1st hour,0.076
same,RGU,[2]; 2nd hour,0.166
same,RGU-CHO,[2]; 2nd hour,2.283
same,Specified Imp-1,[2]; 2nd hour,0.025
same,Specified Imp-2,[2]; 2nd hour,0.051
same,Total Impurity (excluding RGU & RGU-CHO),[2]; 2nd hour,0.076
same,RGU,[2]; 3rd hour,0.175
same,RGU-CHO,[2]; 3rd hour,2.921
same,Specified Imp-1,[2]; 3rd hour,0.026
same,Specified Imp-2,[2]; 3rd hour,0.051
same,Total Impurity (excluding RGU & RGU-CHO),[2]; 3rd hour,0.077
same,RGU,[2]; 4th hour,0.191
same,RGU-CHO,[2]; 4th hour,4.112
same,Specified Imp-1,[2]; 4th hour,0.027
same,Specified Imp-2,[2]; 4th hour,0.051
same,Total Impurity (excluding RGU & RGU-CHO),[2]; 4th hour,0.078
same,RGU,[2]; Initial,0.158
same,RGU-CHO,[2]; Initial,0.891
same,Specified Imp-1,[2]; Initial,0.027
same,Specified Imp-2,[2]; Initial,0.051
same,Total Impurity (excluding RGU & RGU-CHO),[2]; Initial,0.078
same,Assay,[3]; 1st hour,101.00
same,Imp-1,[3]; 1st hour,0.028
same,Imp-2,[3]; 1st hour,0.066
same,RGU,[3]; 1st hour,0.145
same,RGU-CHO,[3]; 1st hour,0.326
same,Total Impurity (excluding RGU & RGU-CHO),[3]; 1st hour,0.094
same,Assay,[3]; 2nd hour,101.30
same,Imp-1,[3]; 2nd hour,0.028
same,Imp-2,[3]; 2nd hour,0.066
same,RGU,[3]; 2nd hour,0.145
same,RGU-CHO,[3]; 2nd hour,0.45
same,Total Impurity (excluding RGU & RGU-CHO),[3]; 2nd hour,0.094
same,Assay,[3]; 3rd hour,100.80
same,Imp-1,[3]; 3rd hour,0.031
same,Imp-2,[3]; 3rd hour,0.068
same,RGU,[3]; 3rd hour,0.146
same,RGU-CHO,[3]; 3rd hour,0.591
same,Total Impurity (excluding RGU & RGU-CHO),[3]; 3rd hour,0.099
same,Assay,[3]; 4th hour,101.30
same,Imp-1,[3]; 4th hour,0.026
same,Imp-2,[3]; 4th hour,0.067
same,RGU,[3]; 4th hour,0.146
same,RGU-CHO,[3]; 4th hour,0.730
same,Total Impurity (excluding RGU & RGU-CHO),[3]; 4th hour,0.093
same,Assay,[3]; 5th hour,101.00
same,Imp-1,[3]; 5th hour,0.049
same,Imp-2,[3]; 5th hour,0.069
same,RGU,[3]; 5th hour,0.148
same,RGU-CHO,[3]; 5th hour,0.839
same,Total Impurity (excluding RGU & RGU-CHO),[3]; 5th hour,0.118
same,Assay,[3]; Initial,101.80
same,Imp-1,[3]; Initial,0.05
same,Imp-2,[3]; Initial,0.068
same,RGU,[3]; Initial,0.143
same,RGU-CHO,[3]; Initial,0.164
same,Total Impurity (excluding RGU & RGU-CHO),[3]; Initial,0.118
Cl.Cn1c(CCCC(=O)O)nc2cc(N(CCCl)CCCl)ccc21 [Bendamustine Hydrochloride],Bendamustine Dimer (RRT 1.23),[4]; 4 hr,0.06%
same,Bendamustine Ethyl Ester (BD 5) (RRT 1.38),[4]; 4 hr,0.01%
same,H-unk (Highest Unknown Impurity),[4]; 4 hr,0.01%
same,Monohydroxy Bendamustine (RRT 0.47),[4]; 4 hr,0.58%
same,Total Related Substances,[4]; 4 hr,0.69%
same,Bendamustine Dimer (RRT 1.23),[4]; 8 hr,0.10%
same,Bendamustine Ethyl Ester (BD 5) (RRT 1.38),[4]; 8 hr,0.01%
same,H-unk (Highest Unknown Impurity),[4]; 8 hr,0.01%
same,Monohydroxy Bendamustine (RRT 0.47),[4]; 8 hr,1.59%
same,Total Related Substances,[4]; 8 hr,1.77%
same,Bendamustine Dimer (RRT 1.23),[4]; 24 hr,0.19%
same,Bendamustine Ethyl Ester (BD 5) (RRT 1.38),[4]; 24 hr,0.01%
same,H-unk (Highest Unknown Impurity),[4]; 24 hr,0.01%
same,Monohydroxy Bendamustine (RRT 0.47),[4]; 24 hr,4.13%
same,Total Related Substances,[4]; 24 hr,4.37%
same,Bendamustine Dimer (RRT 1.23),[4]; Initial,0.04%
same,Bendamustine Ethyl Ester (BD 5) (RRT 1.38),[4]; Initial,0.00%
same,H-unk (Highest Unknown Impurity),[4]; Initial,0.01%
same,Monohydroxy Bendamustine (RRT 0.47),[4]; Initial,0.12%
same,Total Related Substances,[4]; Initial,0.20%
same,Bendamustine Dimer (RRT 1.23),[5]; 1 hr,0.05%
same,Bendamustine Ethyl Ester (BD 5) (RRT 1.38),[5]; 1 hr,0.003%
same,H-unk (Highest Unknown Impurity),[5]; 1 hr,0.03%
same,Monohydroxy Bendamustine (RRT 0.47),[5]; 1 hr,0.02%
same,Total Related Substances,[5]; 1 hr,0.17%
same,Bendamustine Dimer (RRT 1.23),[5]; 2 hr,0.05%
same,Bendamustine Ethyl Ester (BD 5) (RRT 1.38),[5]; 2 hr,0.003%
same,H-unk (Highest Unknown Impurity),[5]; 2 hr,0.03%
same,Monohydroxy Bendamustine (RRT 0.47),[5]; 2 hr,0.03%
same,Total Related Substances,[5]; 2 hr,0.18%
same,Bendamustine Dimer (RRT 1.23),[5]; 3 hr,0.05%
same,Bendamustine Ethyl Ester (BD 5) (RRT 1.38),[5]; 3 hr,0.003%
same,H-unk (Highest Unknown Impurity),[5]; 3 hr,0.03%
same,Monohydroxy Bendamustine (RRT 0.47),[5]; 3 hr,0.04%
same,Total Related Substances,[5]; 3 hr,0.19%
same,Bendamustine Dimer (RRT 1.23),[5]; 6 hr,0.06%
same,Bendamustine Ethyl Ester (BD 5) (RRT 1.38),[5]; 6 hr,0.003%
same,H-unk (Highest Unknown Impurity),[5]; 6 hr,0.03%
same,Monohydroxy Bendamustine (RRT 0.47),[5]; 6 hr,0.07%
same,Total Related Substances,[5]; 6 hr,0.23%
same,Bendamustine Dimer (RRT 1.23),[5]; 8 hr,0.06%
same,Bendamustine Ethyl Ester (BD 5) (RRT 1.38),[5]; 8 hr,0.003%
same,H-unk (Highest Unknown Impurity),[5]; 8 hr,0.03%
same,Monohydroxy Bendamustine (RRT 0.47),[5]; 8 hr,0.09%
same,Total Related Substances,[5]; 8 hr,0.25%
same,Bendamustine Dimer (RRT 1.23),[5]; Initial,0.05%
same,Bendamustine Ethyl Ester (BD 5) (RRT 1.38),[5]; Initial,0.003%
same,H-unk (Highest Unknown Impurity),[5]; Initial,0.03%
same,Monohydroxy Bendamustine (RRT 0.47),[5]; Initial,0.01%
same,Total Related Substances,[5]; Initial,0.15%
